Results from patent US4450149A, “Radiohalogenation method” (Research Corporation, priority 1981, dated 1984).
Like-named read-outs stand apart in the source and are kept apart here.

What was measured:
[1] = Tissue distribution study of radioiodinated fatty acid, 5 min post intravenous injection; assay type: in vivo, female Sp-raque-Dawley rats; conditions: 5 min post injection, approximately 25 μCi, Prepared Via Present Method, average of 5 rats (standard deviation)
Method: Tissue Distribution Study The radioiodinated 19-^125 I-iodononadecanoicacid was evaluated in female Sp-raque-Dawley rats weighing 250-350 g. The rats were given food and water ad libidum. For the tissue distribution study, approximately 25 μCi of the fatty acid in a physiological formulation (EtOH/Tween 80/0.9% saline: 2.5 ml/0.65 ml/22 ml) was administered intraveneously to ether anesthetized rats. Five animals were sacrificed at 5 min post injection. Representative 50-100 mg samples of heart, liver, lung, blood, and muscle were removed and cleaned of fat and connective tissue. Samples were counted in an auto-gamma scintillation counter and values corrected for radioactive decay, counting efficiency and background. The resulting tissue concentration values were normalized to a per kilogram body weight and are reported in % kg dose/g. as shown in Table 8.

[2] = reported in J. Nucl. Med., 22:0000, 1981; average of 5 rats (standard deviation); cited from earlier work

tissue concentration, Blood [1]: 0.13 ± 0.00 % kg dose/g
tissue concentration, Heart [1]: 0.71 ± 0.01 % kg dose/g
tissue concentration, Liver [1]: 0.47 ± 0.03 % kg dose/g
tissue concentration, Lung [1]: 0.24 ± 0.02 % kg dose/g
tissue concentration, Muscle [1]: 0.14 ± 0.00 % kg dose/g
SMILES: O=C(O)CCCCCCCCCCCCCCCCCC[125I] [19-^125 I--iodononadecanoic acid]
tissue concentration, Blood [2]: 0.15 ± 0.01 % kg dose/g
tissue concentration, Heart [2]: 0.88 ± 0.23 % kg dose/g
tissue concentration, Liver [2]: 0.53 ± 0.02 % kg dose/g
tissue concentration, Lung [2]: 0.28 ± 0.04 % kg dose/g
tissue concentration, Muscle [2]: 0.19 ± 0.00 % kg dose/g
